Reference: patent US20090022757A1, “Method for treating photoreceptor cell degeneration” (priority 2007, published 2009)

Key:
[1] = tested on: MNU-induced retinal photoreceptor cell degeneration; assay: Pathological examination of MNU-induced retinal photoreceptor cell damage in rats treated with GLS oil and/or DHA; conditions: MNU 40 mg/kg i.p., damage score
[2] = tested on: MNU-induced retinal photoreceptor cell degeneration; assay: Electroretinogram of rats with MNU-induced retinal photoreceptor cell degeneration treated with GLS oil and/or DHA; format: in vivo, Sprague Dawley rats; set-up: a-Wave Amplitude / b-Wave Amplitude: unit not given here; conditions: MNU 40 mg/kg i.p.
Protocol: Animals and grouping: One hundred and five 50-day-old Sprague Dawley rats were used in the experiment. Twenty-five rats were selected randomly as the normal control (receiving an excipient via gastric gavage). Eighty rats were used for establishing the photoreceptor cell degeneration model and were treated by intraperitoneal injection with a single dose of MNU at 40 mg/kg. The MNU-injected rats were randomly divided into four experimental groups:
(1) GLS oil treatment group (receiving GSL oil and an excipient via gastric gavage);
(2) GLS oil+DHA treatment group (receiving GSL oil, DHA, and an excipient via gastric gavage);
(3) DHA control group (receiving DHA and an excipient via gastric gavage;
(4) Model control group (receiving an excipient via gastric gavage).
The excipient used in this experiment is hydroxypropyl methyl cellulose. The treatment started three days before the administration of MNU (day-3). Each animal in Groups 1-3 received a daily gastric feeding of GSL oil only, GSL oil and DHA (2 mg/kg), or DHA (2 mg/kg) only, in 1 ml 0.5% hydroxypropyl methyl cellulose. Animals in Group 4 received 1 ml 0.5% hydroxypropyl methyl cellulose.
Electroretinogram examination: The pupils of rats were dilated as described in Example 1. The electroretinogram examinations were conducted under the following conditions:
A Neuropack II electrophysiological analyzer was employed to measure the visual electrophysiology.

[3] = daily gastric gavage from day -3, day 1
[4] = daily gastric gavage from day -3, day 3
[5] = daily gastric gavage from day -3, day 5
[6] = daily gastric gavage from day -3, day 7
[7] = daily gastric gavage from day -3, day 10

CC/C=C\C/C=C\C/C=C\C/C=C\C/C=C\C/C=C\CCC(=O)O [DHA, Docosahexaenoic acid]
The Damage Degree of the Retinal Photoreceptor Cell Pathology ([1]; day 1): 1.40 ± 0.52 | The Damage Degree of the Retinal Photoreceptor Cell Pathology ([1]; day 3): 2.2 ± 1.32 | The Damage Degree of the Retinal Photoreceptor Cell Pathology ([1]; day 5): 2.9 ± 2.85 | The Damage Degree of the Retinal Photoreceptor Cell Pathology ([1]; day 7): 2.80 ± 2.97 | The Damage Degree of the Retinal Photoreceptor Cell Pathology ([1]; day 10): 2.60 ± 2.95 | a-Wave Amplitude [2, 3]: 18.43 ± 17.94 | a-Wave Latent Period [2, 3]: 10.35 ± 9.02 | b-Wave Amplitude [2, 3]: 56.90 ± 61.16 | b-Wave Latent Period [2, 3]: 43.92 ± 38.08 | a-Wave Amplitude [2, 4]: 14.13 ± 15.71 | a-Wave Latent Period [2, 4]: 8.64 ± 9.91 | b-Wave Amplitude [2, 4]: 59.43 ± 65.22 | b-Wave Latent Period [2, 4]: 35.10 ± 37.34 | a-Wave Amplitude [2, 5]: 10.27 ± 11.15 | a-Wave Latent Period [2, 5]: 8.30 ± 8.81 | b-Wave Amplitude [2, 5]: 47.85 ± 52.05 | b-Wave Latent Period [2, 5]: 34.92 ± 36.97 | a-Wave Amplitude [2, 6]: 16.61 ± 18.95 | a-Wave Latent Period [2, 6]: 9.01 ± 9.56 | b-Wave Amplitude [2, 6]: 53.93 ± 58.06 | b-Wave Latent Period [2, 6]: 36.24 ± 38.45 | a-Wave Amplitude [2, 7]: 19.70 ± 17.97 | a-Wave Latent Period [2, 7]: 10.42 ± 9.10 | b-Wave Amplitude [2, 7]: 64.71 ± 57.60 | b-Wave Latent Period [2, 7]: 43.23 ± 37.88 | Number of Eyes with extinguished electroretinogram ([2]; n = 10, day 3): 5 | Number of Eyes with extinguished electroretinogram ([2]; n = 10, day 5): 5 | Number of Eyes with extinguished electroretinogram ([2]; n = 10, day 7): 5 | Number of Eyes with extinguished electroretinogram ([2]; n = 10, day 10): 4 | Number of Eyes with extinguished electroretinogram ([2]; n = 10, day 11): 4
